Measured values from paper PMC9573548, “Metabolic Profiling by GC-MS, In Vitro Biological Potential, and In Silico Molecular Docking Studies of Verbena officinalis” (Molecules, 2022).

Test system: T1, urease
T1 construct: jack bean is only the usual preparation; docking model 1E9Z (Helicobacter pylori) is not the assayed enzyme
Assay: indophenol (phenol-hypochlorite) ammonia assay, […] nm
Assay type: biochemical
Conditions: urea substrate (2.25% solution), phosphate buffer pH 7.0, room temperature, 15 min preincubation

## NC(=O)NO [hydroxy urea]
  Urease IC50: 9.8 ± 1.20 µg/mL
